Where a name gives a salt, the structure may show the parent alone.

Data set [1] has as its system bladder cancer tumour cells of TCC97-7 type carrying the Ser249Cys mutation of FGF receptor 3. Put plainly: Inhibition of serum-induced proliferation of TCC97-7 bladder cancer cells (cell-covered surface area, Incucyte). Type of data set: cell-based. Conditions: 72 h, TCC97-7 cell line in the presence of serum, after 3 days. On the procedure:
Evaluation of the Capacity of the FGF-R Antagonists to Inhibit Serum-Induced Proliferation of Bladder Cancer Tumour Cells of TCC97-7 Type Carrying the Ser249Cys Mutation of FGF Receptor 3
To do this, 2000 cells are seeded in the morning in 50 μl of complete medium (Ham-F/12, 1% FCS, 2 mM glutamine, non-essential amino acids, sodium pyruvate, 1% insulin/transferrin/selenium, hydrocortisone). In the evening, 50 μl of the various compounds are added at 2 or 20 μM after dilution in complete culture medium in order to obtain final concentrations of 1 or 10 μM. After 3 days, cell proliferation is evaluated by measuring the cell-covered surface area of a well of a 96 well plate. This surface area is measured using an Incucyte apparatus (Essen BioScience). The percentage inhibition of the cell proliferation is calculated by considering the surface area occupied by the TCC97-7 cells cultured in the absence of FGF-R antagonists to be 0% inhibition. 100% inhibition would correspond to a well no longer containing cells.
Thus, compounds 1 to 24 are capable of inhibiting TCC97-7 cell proliferation by more than 20% at the dose of 1 or 10 μM. (Table No. 2).

Data set [2] relates to TCC97-7 bladder cancer cells carrying the Ser249Cys mutation of FGF-R3. Description: Reduction of intracellular ATP content of TCC97-7 cells in serum-supplemented medium (Cell Titer-Glo). Type of data set: cell-based. The following applies: 72 h, TCC97-7 cells cultured in the presence of serum, after 3 days, read-out: Inhibition of the amount of intracellular ATP (%). As for the experimental part:
Evaluation of the Capacity of FGF-R Antagonists to Reduce the ATP Content of TCC97-7 Bladder Cancer Cells Carrying the Ser249Cys Mutation of FGF-R3, Cultured in a Serum-Supplemented Medium
To do this, 3000 cells are seeded in 50 μl of complete medium (Ham-F/12, 1% FCS, 2 mM glutamine, non-essential amino acids, sodium pyruvate, 1% insulin/transferrin/selenium, hydrocortisone). 16 hours later, 50 μl of the various compounds are added at 2 and 20 μM after dilution in complete culture medium in order to obtain final concentrations of 1 and 10 μM. After 3 days, the ATP content of the cells is measured using the Cell Titer-Glo® Luminescent Cell Viability Assay kit (Promega, France) according to the supplier's recommendations. The percentage inhibition of the amount of intracellular ATP is calculated by considering the ATP content of the cells cultured in the absence of antagonist to be 0% inhibition. 100% inhibition would correspond to a well in which the ATP content is zero.
Thus, compounds 1 to 24 are capable of inhibiting the amount of intracellular ATP in TCC97-7 cells by more than 20% at the dose of 1 or 10 μM (Table No. 3).

For the molecule `Cn1nc(-c2ccccc2)c2c(C(F)(F)F)cc(-c3cccc(C(N)=O)c3)nc21` [compound 1, 3-(1-methyl-3-phenyl-4-trifluoromethyl-1H-pyrazolo[3,4-b]pyridin-6-yl)benzamide], in data set [1], the inhibition at 1 µM is 8% and the inhibition at 10 µM amounted to 91.6%. Further, in data set [2], the inhibition at 1 µM was found to be 10.9% and the inhibition at 10 µM stood at 41.1%.
As for `Cn1nc(-c2ccccc2)c2c(C(F)(F)F)cc(-c3cccc(NS(C)(=O)=O)c3)nc21` [compound 21, N-[3-(1-Methyl-3-phenyl-4-trifluoromethyl-1H-pyrazolo[3,4-b]pyridin-6-yl)phenyl]methanesulphonamide], in data set [1], the inhibition at 1 µM is -3% and the inhibition at 10 µM turned out to be 61%. In addition, in data set [2], the inhibition at 1 µM was -1% and the inhibition at 10 µM amounted to 25%.
On to `N#Cc1cc(-c2cc(C(F)(F)F)c3c(-c4ccccc4)nn(CCN4CCCCC4)c3n2)ccc1N` [compound 10, 2-Amino-5-[3-phenyl-1-(2-piperidin-1-ylethyl)-4-trifluoromethyl-1H-pyrazolo[3,4-b]pyridin-6-yl]benzonitrile], for which, in data set [1], the inhibition at 1 µM is 22.8% and the inhibition at 10 µM came to 85.9%. In data set [2], the inhibition at 1 µM came out at 11% and the inhibition at 10 µM amounted to 94.4%.
For `CN(C)C(=O)c1cccc(-c2cc(C(F)(F)F)c3c(-c4ccccc4)nn(C)c3n2)c1` [compound 4, N,N-Dimethyl-3-(1-methyl-3-phenyl-4-trifluoromethyl-1H-pyrazolo[3,4-b]pyridin-6-yl)benzamide], in that order: 5%, 64.4%, 23.7% and 49.6%.
With `CS(=O)(=O)Nc1cccc(-c2cc(C(F)(F)F)c3c(-c4ccccc4)n[nH]c3n2)c1` [compound 13, N-[3-(3-Phenyl-4-trifluoromethyl-1H-pyrazolo[3,4-b]pyridin-6-yl)phenyl]methanesulphonamide hydrochloride], in data set [1], the inhibition at 1 µM was determined as 0% and the inhibition at 10 µM worked out at 57%. In addition, in data set [2], the inhibition at 1 µM stood at 56% and the inhibition at 10 µM worked out at 63%.
As for `CNC(=O)c1cccc(-c2cc(C(F)(F)F)c3c(-c4ccccc4)n[nH]c3n2)c1` [compound 17, N-Methyl-3-(3-phenyl-4-trifluoromethyl-1H-pyrazolo[3,4-b]pyridin-6-yl)benzamide hydrochloride], in data set [2], the inhibition at 1 µM turned out to be 13% and the inhibition at 10 µM was 69%.
Regarding `O=C(c1cccc(-c2cc(C(F)F)c3c(-c4ccccc4)n[nH]c3n2)c1)N1CCCC1` [compound 6, [3-(4-Difluoromethyl-3-phenyl-1H-pyrazolo[3,4-b]pyridin-6-yl)phenyl]pyrrolidin-1-ylmethanone hydrochloride], the figures for the inhibition at 1 µM in data set [1] and in data set [2] were 16.2% and 26.9%, respectively. Further, the figures for the inhibition at 10 µM in data set [1] and in data set [2] were 83.9% and 90.5%, respectively.
Consider `CN(C)CCn1nc(-c2ccccc2)c2c(C(F)F)cc(-c3ccc(N)c(C#N)c3)nc21` [compound 14, 2-Amino-5-[4-difluoromethyl-1-(2-dimethylaminoethyl)-3-phenyl-1H-pyrazolo[3,4-b]pyridin-6-yl]benzonitrile], for which, in data set [2], the inhibition at 1 µM turned out to be 32% and the inhibition at 10 µM worked out at 77%.
For the molecule `N#Cc1cc(-c2cc(C(F)F)c3c(-c4ccccc4)n[nH]c3n2)ccc1N` (as salt: hydrochloride) [compound 22, 2-Amino-5-(4-difluoromethyl-3-phenyl-1H-pyrazolo[3,4-b]pyridin-6-yl)benzonitrile hydrochloride], the melting point was 282 °C.
In the case of `Cn1nc(-c2ccccc2)c2c(C(F)(F)F)cc(-c3ccc(C(=O)O)cc3)nc21` [compound 23, 4-(1-Methyl-3-phenyl-4-trifluoromethyl-1H-pyrazolo[3,4-b]pyridin-6-yl)benzoic acid], in data set [1], the inhibition at 1 µM turned out to be 8% and the inhibition at 10 µM was determined as 33%. In addition, in data set [2], the inhibition at 1 µM stood at 17% and the inhibition at 10 µM was found to be 40%.
For `CN(C)CCn1nc(-c2ccccc2)c2c(C(F)(F)F)cc(-c3ccc(N)c(C#N)c3)nc21` [compound 8, 2-Amino-5-[1-(2-dimethylamino-ethyl)-3-phenyl-4-trifluoromethyl-1H-pyrazolo[3,4-b]pyridin-6-yl]benzonitrile], in that order: 10.8%, 95.2%, 27.7% and 97.8%.
As for `N#Cc1cc(-c2cc(C(F)F)c3c(-c4ccccc4)n[nH]c3n2)ccc1N` [compound 22, 2-Amino-5-(4-difluoromethyl-3-phenyl-1H-pyrazolo[3,4-b]pyridin-6-yl)benzonitrile hydrochloride], in data set [2], the inhibition at 1 µM worked out at 27% and the inhibition at 10 µM stood at 53%.
In the case of `CN(C)c1ccc(-c2cc(C(F)(F)F)c3c(-c4ccccc4)n[nH]c3n2)cc1` [compound 19, Dimethyl-[4-(3-phenyl-4-trifluoromethyl-1H-pyrazolo[3,4-b]pyridin-6-yl)phenyl]amine], in data set [2], the inhibition at 1 µM came to 30% and the inhibition at 10 µM came to 63%.
For the molecule `CNC(=O)c1cc(-c2cc(C(F)(F)F)c3c(-c4ccccc4)nn(C)c3n2)ccc1F` [compound 2, 2-Fluoro-N-methyl-5-(1-methyl-3-phenyl-4-trifluoromethyl-1H-pyrazolo[3,4-b]pyridin-6-yl)benzamide], in data set [1], the inhibition at 1 µM is 4% and the inhibition at 10 µM is 53.2%. In addition, in data set [2], the inhibition at 1 µM amounted to 17.9% and the inhibition at 10 µM stood at 35.9%.
With `FC(F)c1cc(-c2cccc(N3CCCCC3)c2)nc2[nH]nc(-c3ccccc3)c12` [compound 7, 4-Difluoromethyl-3-phenyl-6-(3-piperidin-1-ylphenyl)-1H-pyrazolo[3,4-b]pyridine hydrochloride], the inhibition at 1 µM was -50.3% in data set [1] and 20.4% in data set [2]. For the same molecule, the inhibition at 10 µM in data set [1] is 52.2%; in data set [2], 78%.
Take `FC(F)(F)c1cc(-c2ccc(N3CCOCC3)cc2)nc2[nH]nc(-c3ccccc3)c12` [compound 24, 6-(4-Morpholin-4-ylphenyl)-3-phenyl-4-trifluoromethyl-1H-pyrazolo[3,4-b]pyridine hydrochloride]: in data set [2], the inhibition at 1 µM came to 6% and the inhibition at 10 µM is 27%.
Taken in the same sequence, the figures for `N#Cc1cc(-c2cc(C(F)(F)F)c3c(-c4ccccc4)n[nH]c3n2)ccc1F` [compound 20, 2-Fluoro-5-(3-phenyl-4-trifluoromethyl-1H-pyrazolo[3,4-b]pyridin-6-yl)benzonitrile] were 11% and 26%.
Consider `O=C(c1ccc(-c2cc(C(F)F)c3c(-c4ccccc4)n[nH]c3n2)cc1)N1CCCC1` [compound 5, [4-(4-Difluoromethyl-3-phenyl-1H-pyrazolo[3,4-b]pyridin-6-yl)phenyl]pyrrolidin-1-ylmethanone hydrochloride], for which, in data set [1], the inhibition at 1 µM amounted to 45.7% and the inhibition at 10 µM came out at 19.5%. For the same molecule, in data set [2], the inhibition at 1 µM was 37.1% and the inhibition at 10 µM was found to be 40.8%.
In turn, `O=C(c1ccc(-c2cc(C(F)F)c3c(-c4ccccc4)n[nH]c3n2)cc1)N1CCCC1` (as salt: hydrochloride) [compound 5, [4-(4-Difluoromethyl-3-phenyl-1H-pyrazolo[3,4-b]pyridin-6-yl)phenyl]pyrrolidin-1-ylmethanone hydrochloride] had a melting point of 248 °C.

By inhibition is commonly meant the relative decrease from the control value, in per cent. In general, melting point refers to the temperature, or range, at which the solid turns liquid.

Values taken from patent US9572799B2, “Pyrazolopyridine derivatives for use in the treatment of bladder cancer” (SANOFI, priority 2013, dated 2017).
